ChEMBL document CHEMBL1127314, “A new potent and selective histamine H3 receptor agonist, 4-(1H-imidazol-4-ylmethyl)piperidine” (J Med Chem, 1994)

Experiments:
[1] = pD2 value was determined on jejunum preparations of eight different animals; type: ADME, tissue-based
[2] = target: Histamine H3 receptor (Cavia porcellus) (UniProt Q9JI35); experiment: KL value determined on H3 receptor
[3] = target: Histamine H3 receptor (Cavia porcellus) (UniProt Q9JI35); experiment: H3 receptor agonistic activity of the compound; type: functional
[4] = pKi log value determined for the guinea pig H1 receptor; type: ADME

Histamine H3 receptor (Cavia porcellus), sequence (Q9JI35 whole entry): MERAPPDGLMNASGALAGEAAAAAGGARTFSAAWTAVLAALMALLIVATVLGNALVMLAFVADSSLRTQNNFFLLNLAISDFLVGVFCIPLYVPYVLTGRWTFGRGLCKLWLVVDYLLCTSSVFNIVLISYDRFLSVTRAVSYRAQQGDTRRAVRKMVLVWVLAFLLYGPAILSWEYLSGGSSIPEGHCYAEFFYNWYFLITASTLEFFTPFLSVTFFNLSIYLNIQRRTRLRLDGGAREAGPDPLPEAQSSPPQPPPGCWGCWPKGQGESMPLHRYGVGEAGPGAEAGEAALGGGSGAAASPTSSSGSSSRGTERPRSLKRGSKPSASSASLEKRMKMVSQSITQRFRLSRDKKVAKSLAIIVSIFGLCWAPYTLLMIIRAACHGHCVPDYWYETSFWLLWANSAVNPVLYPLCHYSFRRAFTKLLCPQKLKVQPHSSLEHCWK

| SMILES | pD2 [1] | KL [2] | KH [3] | Log Ki [4] |
| --- | --- | --- | --- | --- |
| C[C@@H](N)Cc1c[nH]cn1 | 7.8 | 0.22 µM | 4.3 nM | – |
| c1nc(CC2CCNCC2)c[nH]1 [IMMEPIP] | 8 | 1.01 µM | 2.7 nM | -4.79 |
